US10344330B2, “Glatiramer acetate response biomarker mRNA potency assay” (Mylan Inc., priority 2013, dated 2019)

System: mouse IL-4 mRNA in primary LN cells
Experiment: Validation: mouse IL-4 mRNA by real-time PCR in LN cells of GA-immunized SJL/J mice (Example IV)
Assay type: cell-based
Conditions: for IL-4 mRNA Fold Change: normalized to GAPDH; for induction of IL-4 mRNA: 20 μg/mL GA, 6 hours
Description: Three experiments were conducted using one batch of GA (Mylan GMA). The primary LN cells were stimulated by incubation with 6 concentrations (0.3 to 20 μg/mL) of the GA for 6 hours at 37° C. Total RNA was isolated from LN cells stimulated with GA or controls. cDNA was synthesized from the RNA and the mRNA levels of seven mouse cytokines, IL-2, IL-4, IL-5, IL-10, IL-13, interferon (IFN)-γ and tumor necrosis factor (TNF)-α, were quantitatively measured by a real-time PCR method.
Female SJL/J mice at 8-9 weeks of age were immunized by injection into four footpads using a 1 mL syringe with a 27-G, ½-inch needle. Each mouse received a total injection volume of 0.1 mL of GMA emulsified in CFA (about 10 μL into each of the front footpads and 40 μL into each of the hind footpads). Animals were immunized on Day 0. After injection, animals were placed back in their cages and housed ≤6 animals per cage.
Immunized animals were sacrificed by cervical dislocation on Day 10 following immunization. […] After centrifugation at about 200×g for 10 minutes at 4° C., the cell pellet was re-suspended in 40 mL of DCCM-1 medium for cell counting. A Trypan blue exclusion method was used to determine the cell density of viable cells in the suspension. After cell counting, the LN cells were suspended in enriched DCCM-1 medium at density of 7.5×10^6 cells/mL. LN cells (0.12 mL) were plated into each well of 96-well tissue culture plates.
Dilutions of GA (Mylan GMA) were prepared using enriched DCCM-1 medium as the diluent. GA dilutions (0.12 mL) were added in the assigned wells of 96-well tissue culture plates. The same volume of LN cells (0.12 mL) isolated from immunized animals was added to the assigned wells. A positive control and a negative control were always performed in the same assay by treating LN cells with 2.5 μg/mL ConA and 10 μg/mL MBP, respectively. The LN cells with mock stimulation protocols (enriched DCCM-1 medium) were used to monitor the background mRNA level of a cytokine. The plates were incubated at 37° C. in a humidified 5% CO2 incubator for 6 hr.
At the end of incubation time, culture medium from stimulated cells was removed by aspiration and the cells were lysed using Qiagen or Promega lysis buffer. The lysate was transferred to an RNeasy Mini column (Qiagen) or wells of the SV 96 Binding Plate (Promega) for RNA isolation and cDNA synthesis. All tested samples were run in triplicate.
The SV 96 Total RNA Isolation System (Promega; Cat. No. Z3505) was used for total RNA isolation. Assay procedures were carried out according to each manufacturer's protocol. RNA samples were stored at −70° C. until use. […] The assay procedure was carried out according to the manufacturer's protocol.
The plate was centrifuged at 2000 rpm for 2 minutes at 4° C. to spin down the contents and eliminate air bubbles. Samples were prepared and run in a 96-well plate using a Life Technologies Real-Time PCR system (previously Applied Biosystems; Model No. 7500) according to the manufacturer's recommendation. The mix for the reference gene was prepared in the same way using the reference gene primer.
A relative quantitation method was used to analyze changes in mIL-2, mIL-4, mIL-5, mIL-10, mIL-13, mIFN-γ and TNF-α expression in GA treated samples relative to the untreated control (Enriched DCCM-1 treated) samples using the following program:
Levels of mouse cytokine amplicons were normalized to an internal probe level (GAPDH) from the same samples. The following equations were used to calculate the relative increase in response to GA stimulation compared to the control sample (Enriched DCCM1 sample): […]

Concanavalin A [ConA, reference compound]
IL-4 mRNA Fold Change (Experiment 1, 2.5 μg/mL): 148.6 fold
IL-4 mRNA Fold Change (Experiment 2, 2.5 μg/mL): 21.0 fold
IL-4 mRNA Fold Change (Experiment 3, 2.5 μg/mL): 53.8 fold

L-glutamic acid polymer with L-alanine, L-lysine and L-tyrosine, acetate (salt) [GA]
induction of IL-4 mRNA (SJL/J, Exp 1): 41.3 fold
induction of IL-4 mRNA (SJL/J, Exp 2): 11.8 fold
induction of IL-4 mRNA (SJL/J, Exp 3): 27.6 fold
induction of IL-4 mRNA (in words) (SJL/J, different concentrations of GA vs unstimulated LN cells): robust induction

B1: MBP: myelin basic protein, a negative control (protein, UniProt P02686 1-304, looked up)
Myelin basic protein: MGNHAGKRELNAEKASTNSETNRGESEKKRNLGELSRTTSEDNEVFGEADANQNNGTSSQDTAVTDSKRTADPKNAWQDAHPADPGSRPHLIRLFSRDAPGREDNTFKDRPSESDELQTIQEDSAATSESLDVMASQKRPSQRHGSKYLATASTMDHARHGFLPRHRDTGILDSIGRFFGGDRGAPKRGSGKDSHHPARTAHYGSLPQKSHGRTQDENPVVHFFKNIVTPRTPPPSQGKGRGLSLSRFSWGAEGQRPGFGYGGRASDYKSAHKGFKGVDAQGTLSKIFKLGGRDSRSGSPMARR
IL-4 mRNA Fold Change (Experiment 1, 10 μg/mL): 2.7 fold
IL-4 mRNA Fold Change (Experiment 2, 10 μg/mL): 0.8 fold
IL-4 mRNA Fold Change (Experiment 3, 10 μg/mL): 1.1 fold
